Measured values as given in PubChem BioAssay AID330 (DTP/NCI, 2004).
Values joined by “and” are separate entries in the source; they are usually repeats but may differ in a detail not shown here. Equal values may be shown once. Toxic doses and inconclusive results are not listed. The calls were made as follows: active = survival T/C of 150% or more; inactive = T/C below 125% in these data.

Test system: P388 leukemia ip, CD2F1 mice, survival T/C
Assay: NCI In Vivo Anticancer Drug Screen. Data for tumor model P388 Leukemia (intraperitoneal) in CD2F1 (CDF1) mice
Settings: endpoint: median survival time, higher = longer survival
How it was run: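 Mice carrying the transplanted tumor received test compound or vehicle. Survival was recorded in each group, and the value is the treated-group measurement divided by that of the vehicle-treated control group.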

[1] = dose: 100.0 mg/kg/injection, schedule: Q04DX003 (ip), vehicle: saline with Tween-80
[2] = dose: 400.0 mg/kg/injection, schedule: Q04DX003 (ip), vehicle: saline with Tween-80
[3] = dose: 50.0 mg/kg/injection, schedule: Q01DX009 (ip), vehicle: saline with Tween-80
[4] = dose: 100.0 mg/kg/injection, schedule: Q01DX009 (ip), vehicle: saline with Tween-80
[5] = dose: 200.0 mg/kg/injection, schedule: Q01DX009 (ip), vehicle: saline with Tween-80
[6] = dose: 50.0 mg/kg/injection, schedule: Q01DX009 (ip), vehicle: saline
[7] = dose: 100.0 mg/kg/injection, schedule: Q01DX009 (ip), vehicle: saline
[8] = dose: 200.0 mg/kg/injection, schedule: Q01DX009 (ip), vehicle: saline
[9] = dose: 25.0 mg/kg/injection, schedule: Q01DX009 (ip), vehicle: saline with Tween-80
[10] = dose: 100.0 mg/kg/injection, schedule: Q01DX001 (ip), vehicle: saline with Tween-80
[11] = dose: 200.0 mg/kg/injection, schedule: Q01DX001 (ip), vehicle: saline with Tween-80
[12] = dose: 400.0 mg/kg/injection, schedule: Q01DX001 (ip), vehicle: saline with Tween-80
[13] = dose: 400.0 mg/kg/injection, schedule: Q01DX009 (ip), vehicle: saline

Measured: T/C

CCOC(=O)CC(=O)c1ccc(C)cc1
inactive: [1] 100 % of control | dose: 200.0 mg/kg/injection, schedule: Q04DX003 (ip), vehicle: saline with Tween-80 104 % of control | [2] 109 % of control

CCCN(CCC)c1ncnc2[nH]ncc12
inactive: dose: 50.0 mg/kg/injection, schedule: Q01DX005 (ip), vehicle: saline 92 % of control | dose: 100.0 mg/kg/injection, schedule: Q01DX005 (ip), vehicle: saline 92 % of control

O=C1c2ccccc2C(=O)N1C(CO)Cc1ccccc1 (configuration not stated)
inactive: [3] 100 % of control | [4] 95 % of control | [5] 108 % of control

CCCCCCCCCCCCSCCSCCC
inactive: [6] 90 % of control | [7] 100 % of control | [8] 90 % of control

CCN(CC)c1ccc2nc3c4ccccc4c(=O)cc-3n(-c3ccccc3)c2c1
inactive: [4] 99 % of control | [5] 101 % of control | dose: 400.0 mg/kg/injection, schedule: Q01DX009 (ip), vehicle: saline with Tween-80 115 % of control

CC1CC(O)C(CN(C)C)C(C)(C)C1 (configuration not stated)
inactive: dose: 50.0 mg/kg/injection, schedule: Q01DX005 (ip), vehicle: saline with Tween-80 106 % of control | dose: 100.0 mg/kg/injection, schedule: Q01DX005 (ip), vehicle: saline with Tween-80 100 % of control

CCC[CH2][Sn]([Cl])([CH2]CCC)[S]C(=S)NCCNC(=S)[S][Sn]([Cl])([CH2]CCC)[CH2]CCC
inactive: dose: 0.78 mg/kg/injection, schedule: Q01DX009 (ip), vehicle: Klucel (hydroxypropylcellulose) (HPC) 93 % of control | dose: 1.56 mg/kg/injection, schedule: Q01DX009 (ip), vehicle: Klucel (hydroxypropylcellulose) (HPC) 98 % of control

COc1cc(C(C)(C)C)cc(OC)c1C(O)(c1c(OC)cc(C(C)(C)C)cc1OC)c1c(OC)cc(C(C)(C)C)cc1OC
inactive: [9] 121 % of control | [4] 104 % of control

Cc1ccc2[nH]c3c(c2c1)-c1ncncc1CC3
inactive: dose: 100.0 mg/kg/injection, schedule: Q04DX002 (ip), vehicle: Klucel (hydroxypropylcellulose) (HPC) 104 % of control | dose: 200.0 mg/kg/injection, schedule: Q04DX002 (ip), vehicle: Klucel (hydroxypropylcellulose) (HPC) 92 % of control

O=c1[nH]c(=O)n(CC(O)CO)cc1/C=C/Br (configuration not stated)
inactive: [10] 106 % of control | [11] 101 % of control | [12] 100 % of control

Cc1cnc2ncn(Cc3c[nH]c(=O)[nH]c3=O)c(=O)c2c1
inactive: dose: 12.5 mg/kg/injection, schedule: Q01DX001 (ip), vehicle: saline with Tween-80 110 % of control | dose: 25.0 mg/kg/injection, schedule: Q01DX001 (ip), vehicle: saline with Tween-80 107 % of control | dose: 50.0 mg/kg/injection, schedule: Q01DX001 (ip), vehicle: saline with Tween-80 104 % of control | [10] 104 % of control

COc1nc2c(ccn2C2OC(COC(C)=O)C(OC(C)=O)C(OC(C)=O)C2OC(C)=O)c(=O)n1C (configuration not stated)
inactive: dose: 60.0 mg/kg/injection, schedule: Q01DX005 (ip), vehicle: saline with Tween-80 100 % of control | dose: 120.0 mg/kg/injection, schedule: Q01DX005 (ip), vehicle: saline with Tween-80 104 % of control | dose: 240.0 mg/kg/injection, schedule: Q01DX005 (ip), vehicle: saline with Tween-80 95 % of control

COc1ccc(C=NC(C)(C)CO)cc1OC
inactive: dose: 25.0 mg/kg/injection, schedule: Q01DX005 (ip), vehicle: Klucel (hydroxypropylcellulose) (HPC) 100 % of control | dose: 50.0 mg/kg/injection, schedule: Q01DX005 (ip), vehicle: Klucel (hydroxypropylcellulose) (HPC) 109 % of control | dose: 100.0 mg/kg/injection, schedule: Q01DX005 (ip), vehicle: Klucel (hydroxypropylcellulose) (HPC) 101 % of control | dose: 200.0 mg/kg/injection, schedule: Q01DX005 (ip), vehicle: Klucel (hydroxypropylcellulose) (HPC) 100 % of control

CCCC(C)Br (configuration not stated)
inactive: [7] 109 % of control | [8] 114 % of control | [13] 115 % of control

Brc1c(Br)c(Br)c2n[nH]nc2c1Br
inactive: [9] 103 % of control | [3] 106 % of control | [4] 103 % of control | [5] 115 % of control

Nc1ccc(NS(=O)(=O)c2cccs2)c(O)c1
inactive: dose: 50.0 mg/kg/injection, schedule: Q01DX009 (ip), vehicle: Klucel (hydroxypropylcellulose) (HPC) 97 % of control | dose: 100.0 mg/kg/injection, schedule: Q01DX009 (ip), vehicle: Klucel (hydroxypropylcellulose) (HPC) 94 % of control | dose: 200.0 mg/kg/injection, schedule: Q01DX009 (ip), vehicle: Klucel (hydroxypropylcellulose) (HPC) 105 % of control

O=C(NC(=S)c1ccc(Br)cc1)Nc1ccccc1
inactive: dose: 2.5 mg/kg/injection, schedule: Q01DX009 (ip), vehicle: saline with Tween-80 90 % of control | dose: 5.0 mg/kg/injection, schedule: Q01DX009 (ip), vehicle: saline with Tween-80 103 % of control | dose: 10.0 mg/kg/injection, schedule: Q01DX009 (ip), vehicle: saline with Tween-80 88 % of control

NNC(=O)CNC(=O)Nc1cccc(C(F)(F)F)c1
inactive: [3] 100 % of control | [4] 92 % of control | [5] 100 % of control

COc1ccc2nc3cc(Cl)ccc3c(SCC(=O)OCC(=O)[C@@]3(O)CC[C@H]4[C@@H]5CCC6=CC(=O)C=C[C@]6(C)[C@H]5C(=O)C[C@@]43C)c2c1
inactive: [6] 118 % of control | [7] 108 % of control | [8] 110 % of control

CCOC(=O)[C]1([Sb]([CH3])[CH3])N=NC(C(=O)OC)=C1C(=O)OC (configuration not stated)
inactive: dose: 25.0 mg/kg/injection, schedule: Q04DX003 (ip), vehicle: saline 101 % of control and 98 % of control | dose: 50.0 mg/kg/injection, schedule: Q04DX003 (ip), vehicle: saline 100 % of control and 102 % of control | [1] 108 % of control | dose: 100.0 mg/kg/injection, schedule: Q04DX003 (ip), vehicle: saline 102 % of control and 104 % of control | dose: 200.0 mg/kg/injection, schedule: Q04DX003 (ip), vehicle: saline 107 % of control and 98 % of control | [2] 105 % of control

O=C(CCl)N/N=C(\c1ccccc1)c1ccc(Br)cc1
inactive: dose: 45.0 mg/kg/injection, schedule: Q01DX009 (ip), vehicle: saline with Tween-80 103 % of control | dose: 90.0 mg/kg/injection, schedule: Q01DX009 (ip), vehicle: saline with Tween-80 98 % of control | dose: 180.0 mg/kg/injection, schedule: Q01DX009 (ip), vehicle: saline with Tween-80 97 % of control

O=C(N/N=C/c1cc(Br)cc(Br)c1O)c1ccccc1
inactive: [10] 96 % of control | [11] 96 % of control | [12] 92 % of control

[O-]/[N+](=C\c1ccccc1)CCO
inactive: [3] 97 % of control | [4] 101 % of control | [5] 106 % of control

c1ccc(C2=NCCCO2)cc1
inactive: [9] 104 % of control | dose: 25.0 mg/kg/injection, schedule: Q04DX003 (ip), vehicle: saline with Tween-80 100 % of control | [3] 95 % of control | dose: 50.0 mg/kg/injection, schedule: Q04DX003 (ip), vehicle: saline with Tween-80 100 % of control | [4] 108 % of control | [1] 100 % of control

O=[N+]([O-])c1ccccc1C=Nc1ccc2nc(SCc3ccccc3)sc2c1
inactive: dose: 100.0 mg/kg/injection, schedule: Q04DX003 (ip), vehicle: Klucel (hydroxypropylcellulose) (HPC) 100 % of control | dose: 200.0 mg/kg/injection, schedule: Q04DX003 (ip), vehicle: Klucel (hydroxypropylcellulose) (HPC) 95 % of control | dose: 400.0 mg/kg/injection, schedule: Q04DX003 (ip), vehicle: Klucel (hydroxypropylcellulose) (HPC) 89 % of control

CN(C)P(N)(N)=O
inactive: [7] 105 % of control | [8] 95 % of control | [13] 100 % of control
